The values below come from patent publication US4851338A, “Method for diagnosing the presence of bacteria” (Biocarb AB, priority 1982, dated 1989).

The test system of data set [1] is NK-cells activity (lymphocytes) against K-562 cells. Put plainly: Inhibition of NK-cells activity (chromium release cytotoxicity of lymphocytes against K-562). The note with it: for % specific cytotoxicity: ratio 20:1; for cytolytic effect after preincubation with the oligosaccharides: in concentrations down to 0.3 mg/ml. It is filed as cell-based, human. As to the method:
Lymphocytes isolated from peripheral blood drained from normal donors have the ability of exerting a cytotoxic, (i.e. cell killing activity against certain types of cells in culture. In the instant example there is used a human leukemia cell line called K-562 as a target cell for such cytolytic activity.
Method: K-562 cells intracellularly labelled with radioactive chromium are incubated with effector cells (lymphocytes) for 4 hours at 37° C. The cytotoxic effect is measured as the quantity of isotope released in relation to remaining isotope in the target cells. For details see Malmstrom, P., Jonsson, Å, and Sjogren, H.O. "Countercurrent distribution of lymphocytes from human peripheral blood in an aqueous two-phase system. II. Separation into subsets of lymphocytes with distinctive functions". Cell Immunol. 53:51-64, 1980. For studying inhibiting substances effector cells (6×10^6 cells/ml) are preincubated with the respective oligosaccharides diluted in cultivating medium for half an hour at 37° C. After washing with centrifugation the effector cells are transferred directly to the target cells.

Data set [2] deals with haemagglutination between GRBC and Bordetella pertussis bacteria or fimbriae thereof. Briefly: Inhibition of haemagglutination of goose erythrocytes (GRBC) with Bordetella pertussis. It is filed as cell-based. The following applies: for minimal effective concentration: Bordetella pertussis, Erythrocyte, 4 h, read-out: Minimum inhibitory concentration. As to the method:
In the tests bacteria of the type Bordetella pertussis newly sampled from an individual suffering from whooping cough were used. The bacteria were cultivated on CFA-agar at +37° C. for 18 hours. The bacterial growth was slurried in PBS, pH 7.2 to a density of 1×10^10 bacteria/ml. Fimbriae from the bacterium were obtained in the following manner:
The bacteria were cultivated on Roux flasks with CFA-agar. After incubation at +37° for 24 hours the bacteria were harvested by adding 10 ml PBS/flask and sterile glass balls. The flasks were shaken and the bacterial suspension removed. The bacteria were pelletized by centrifugation (3000×g, +4°, 30 min.). The supernatant was removed by suction. The bacteria were resuspended in 10 ml PBS and the suspension was treated in a Waring blendor 2 x 20 seconds. The suspension was centrifuged (5000×g, +4°, 30 min.) to pelletize the bacteria. The supernatant containing fimbriae was removed by suction. The bacterial pellet is resuspended, treated in a Waring blender and after centrifugation the supernatant is again recovered. The two supernatants are pooled and ammonium sulphate is added to a concentration of 30 %. After stirring the supernatants are allowed to stand at +4° C. for 18 hours, centrifugation then taking place at 5000 ×g. The supernatant was separated and the precipitation was dialyzed against PBS. The solubilized fimbriae fraction was precipitated with ammonium sulphate once more and dialyzed.
Haemagglutination is performed using erythrocytes from geese (GRBC) suspended to a concentration of 3% v/w in PBS. The agglutination tests were carried out so that 50 μl GRBC were mixed with 2-step dilution of antigen 50 μl bacterial suspension or 50 μl fimbriae suspension and 50 μl PBS in microtitre plates. The plates were sealed with Parafilm and incubated at […] for 4 hours and were then recorded. The last well wherein agglutination could be read by the eye is considered as 1 haemagglutinating unit (1 HU).
In the inhibition experiments there were added instead of PBS 50 μl of an oligosaccharide solution, the inhibiting capacity was studied. […]

Data set [3] concerns haemagglutination between sheep erythrocytes and S. saprophyticus bacteria (Mc 2 and Mc 194). Put plainly: Inhibition of haemagglutination of sheep erythrocytes with Staphylococcus saprophyticus. It is filed as cell-based. The following applies: for minimal effective concentration: Staphylococcus saprophyticus, Erythrocyte, read-out: Minimum inhibitory con. As to the method:
In the tests the bacteria S. saprophyticus strains, both isolated from urine from patents having urinary tract infection, were used. The bacteria were cultivated in tryptone broth over night, pelletized by means of centrifugation and washed twice with PBS, pH 7.2. Haemagglutination was performed using erythrocytes from sheep obtained from sheep blood and washed twice with 0.85 % saline.
In the haemagglutination-indication experiments microtitre plates (Limbo Sc. Comp. Inc) were used. 25 μl of bacterial suspension were titrated in PBS by two-step titre steps, 25 μl of 1% erythrocyte suspension being then added. The haemagglutination titre was determined after incubation of the plates for 2-4 hours in room temperature.
In the inhibition experiments serial dilutions of the relevant inhibitor (50 μl/well) and 25 μl of bacterial suspension diluted to contain 2 HU haemagglutinating units of bacteria were used. The plates were incubated for 30 minutes at 37° C., 25 μl of the erythrocyte suspension being then added to each well.

The test system of another data set is S. saprophyticus. Put plainly: Removal of S. saprophyticus from an infected surface (disinfection). Set-up: species or system Staphylococcus saprophyticus. The note with it: 0.1 percent by weight aqueous solution, cotton pad. The protocol: A 0.1 percent by weight aqueous solution of the compound β-D-Galp-(1-4)-D-GNAc is prepared and applied by using a cotton pad on a surface infected by S. saprophyticus.

In data set [4] the test system is adhesion of S. saprophyticus to urinary epithelial cells. Briefly: Inhibition of adherence of S. saprophyticus to urinary epithelial cells. The following applies: Staphylococcus saprophyticus, Epithelial cell, 0.75 h, read-out: reduction of the number of adhering bacteria. It is filed as cell-based, Staphylococcus saprophyticus. The protocol:
Cells from urinary epithelium were suspended in cell cultivation medium RPMI 1640 (Flow Ltd) to a concentration of 10^5 cells/ml.
Microorganisms of the type S. saprophyticus were suspended in RPMI 1640 to a concentration of 10^9 bacteria/ml. Oligosaccharides which were tested for their ability of preventing adhesion of S. saprophyticus to urinary epithelial cells were dissolved in RPMI 1640 to a concentration of 5 mg/ml. In the experiments 1 ml of the oligosaccharide solution was incubated with 0.1 ml bacterial suspension at 37° C. for 30 minutes. Urinary epithelial cells were incubated with the bacterial suspension incubated in advance as described above with oligosaccharide solution for 45 minutes at 37° C. As a control there was used a bacterial suspension preincubated with 1 ml RPMI 1640.
Incubated samples were filtrated through a 12μ filter and washed 3 times with PBS. The filter was pressed against microscope slides for a few seconds, the slides being then fixed in methanol for 10 minutes. The slides were dried in air and coloured with acridine orange for 2 minutes. The slides were washed, dried in air and studies in fluorescence microscope. The number of bacteria per cell was counted. In each experiment 50 cells were counted.

The mark [5] stands for this setting: 0.3 mg/ml oligosaccharide, experiment 1 (without inhibitor 22.3).
[6] abbreviates: 0.3 mg/ml oligosaccharide, experiment 2 (without inhibitor 32.0).
Where [7] appears, read: 1 mg/ml oligosaccharide, experiment 1 (without inhibitor 22.3).
Where [8] appears, read: 1 mg/ml oligosaccharide, experiment 2 (without inhibitor 32.0).
Setting [9] is: 3 mg/ml oligosaccharide, experiment 1 (without inhibitor 22.3).
Where [10] appears, read: 3 mg/ml oligosaccharide, experiment 2 (without inhibitor 32.0).

With `CC(=O)N[C@H]1[C@H](O[C@@H]2[C@@H](OC[C@H]3O[C@@H](O[C@H]4[C@H](O)[C@@H](NC(C)=O)C(O)O[C@@H]4CO)[C@@H](O)[C@@H](O)[C@@H]3O)O[C@H](CO)[C@@H](O)[C@@H]2O)O[C@H](CO)[C@@H](O[C@@H]2O[C@H](CO)[C@H](O)[C@H](O)[C@H]2O)[C@@H]1O` (stereo partly drawn) [GM1 -penta, β-Galp-(1-4)-β-GNAcp-(1-2)-α-Manp-(1-6)-β-Manp-(1-4)-GNAc], the “% specific cytotoxicity” value in data set [1] (setting [5]) is given as 16.8%; in data set [1] (setting [6]), 13.9%; in data set [1] (setting [7]), 6.5%; in data set [1] (setting [8]) it was 2.7%; in data set [1] (setting [9]) it was -1.4%; in data set [1] (setting [10]) it was 0.0%. Also, the “cytolytic effect after preincubation with the oligosaccharides” value in data set [1] is listed as “inhibited”. The minimal effective concentration in data set [2] amounted to 675 µg/mL; in data set [3] it was 250 µg/mL.

On to `CC(=O)N[C@H]1[C@H](O[C@@H]2[C@@H](OC[C@H]3O[C@@H](O[C@H]4[C@H](O)[C@@H](NC(C)=O)C(O)O[C@@H]4CO)[C@@H](O)[C@@H](O[C@H]4O[C@H](CO)[C@@H](O)[C@H](O)[C@@H]4O[C@@H]4O[C@H](CO)[C@@H](O[C@@H]5O[C@H](CO)[C@H](O)[C@H](O)[C@H]5O)[C@H](O)[C@H]4NC(C)=O)[C@@H]3O)O[C@H](CO)[C@@H](O)[C@@H]2O)O[C@H](CO)[C@@H](O[C@@H]2O[C@H](CO)[C@H](O)[C@H](O)[C@H]2O)[C@@H]1O` (stereo partly shown) [drawing 7], for which, in data set [2], the minimal effective concentration turned out to be 175 µg/mL.

With `CC(=O)N[C@H]1C(O)O[C@H](CO)[C@@H](O[C@@H]2O[C@H](CO)[C@H](O)[C@H](O)[C@H]2O)[C@@H]1O` (stereo partly drawn) [β-Galp-(1-4)-GNAc], in data set [3], the minimal effective concentration was 300 µg/mL. Further, in the data set on S. saprophyticus, the “removal of the bacterium from the surface” value was “effective removal of the bacterium from the surface”. Moreover, the inhibition at 5000 µg/mL in data set [4] was roughly 85%.

For Asialofetuin, the “% specific cytotoxicity” value turned out to be 10% in data set [1] (setting [5]); 15% in data set [1] (setting [6]); 7.0% in data set [1] (setting [7]); 5.0% in data set [1] (setting [8]); 1.5% in data set [1] (setting [9]); 1.0% in data set [1] (setting [10]). For the same compound, in data set [1], the “cytolytic effect after preincubation with the oligosaccharides” value was “inhibited”. The compound also yielded a Minimum inhibitory concentration in data set [2] (Inhibition of haemagglutination, 3% GRBC, 2-4 HU bacteria or fimbriae, +44° C., 4 hours) of 150 µg/mL. In data set [3] (Inhibition of haemagglutination, S. saprophyticus Mc 2 and Mc 194, 2 HU bacteria), this compound registered a Minimum inhibitory con. of 125 µg/mL.
